Data: US10058538B2, “Compositions comprising substituted benzofuroquinolizine and α2-adrenergic agonists” (VETCARE OY, priority 2014, dated 2018)

Legend:
[1] = test system: beagle dogs; assay: Composite sedation score (0-20) in dogs, medetomidine with or without MK-467 IM, reversal with atipamezole (Example 2); type: in vivo, dog; conditions: FIG. 3
Protocol: Atipamezole (100 μg/kg IM) was administered at 30 min (arrow).
The study was designed as a prospective, randomized, experimental cross-over study.
Each dog (n=7) was treated twice with a 14-days washout period: • Medetomidine (20 μg/kg) at 0 min, followed by Atipamezole (100 μg/kg) at 30 min • Medetomidine (20 μg/kg)+MK-467 (400 μg/kg) at 0 min, followed by Atipamezole (100 μg/kg) at 30 min
Medetomidine and MK-467 were mixed in the same syringe and administered intramuscularly.
Sedation was scored by a veterinarian blinded for treatment with the following score:
Composite Sedation Score (0-20)
• 0 Standing • 1 Standing but staggers • 2 Sternal head up • 3 Sternal head down • 4 Lateral head down 2. […] Position of the Eye (0-2) • 0 Middle • 2 Turned down 4. Jaw and Tongue Relaxation (0-4) • 0 Normal, opens the jaws but resists manipulation of the tongue • 1 Bites jaws together • 2 Opens the jaws but strong resistance when tongue is pulled • 3 Slight resistance when tongue is pulled • 4 No resistance 5. Resistance to Positioning in Lateral Recumbency (0-3) • 0 Normal • 1 Turns back to sternal position • 2 Some resistance but stays in lateral recumbency • 3 No resistance or the position is already lateral 6. […]

[2] = test system: dogs; conditions: dexmedetomidine 10 μg/kg IV, MK-467 250, 500 and 750 μg/kg, especially with higher doses; cited from earlier work
[3] = test system: dogs; conditions: medetomidine 20 μg/kg IM or 10 μg/kg IV, compared with baseline values; cited from earlier work
[4] = by reduction in heart rate and cardiac output after medetomidine administration; cited from earlier work

CCC1(c2cnc[nH]2)Cc2ccccc2C1 [atipamezole]
reversal of medetomidine induced sedation ([1]; atipamezole 100 μg/kg IM at 30 min after medetomidine 20 μg/kg IM alone or with MK-467 400 μg/kg): reversed

Cc1cccc([C@H](C)c2c[nH]cn2)c1C [dexmedetomidine, (S)-4-[1-(2,3-Dimethylphenyl)ethyl]-3H-imidazole]
BIS-values (bispectral index) [2]: decreased

Cc1cccc(C(C)c2cnc[nH]2)c1C (racemic) [medetomidine, (RS)-4-[1-(2,3-dimethylphenyl)ethyl]-3H-imidazole]
heart rate (HR), mixed-venous partial pressure of oxygen (Pvo(2)) and cardiac index (CI) [3]: significantly lower
mean arterial blood pressure (MAP), systemic vascular resistance (SVR) and oxygen extraction ratio (ER) [3]: significantly higher
resedation after atipamezole reversal ([1]; medetomidine 20 μg/kg IM alone or with MK-467 400 μg/kg in the same syringe, atipamezole 100 μg/kg IM at 30 min): resedation seen
decrease of global Do2 (oxygen delivery) [4]: at least 50%
